Measured values: patent US20060161001A1, “Substituted heterocyclic compounds and methods of use” (Amgen Inc., priority 2004, published 2006)

tested on: LPS induced TNF release; assay: THP1 cell assay (LPS induced TNF release); assay type: cell-based; conditions: Homo sapiens, THP-1; THP1 cells, LPS induced TNF-α secretion, 3 h at 37° C.
Procedure: Lipopolysaccharide-Activated THP1 Cell TNF Production Assay
THP1 cells are resuspended in fresh THP1 media (RPMI 1640, 10% heat-inactivated FBS, 1XPGS, 1XNEAA, plus 30 μM OME) at a concentration of 1E6/mL. One hundred microliters of cells per well are plated in a polystyrene 96-well tissue culture. One microgram per mL of bacterial LPS is prepared in THP1 media and is transferred to the wells. Test compounds are dissolved in 100% DMSO and are serially diluted 3-fold in a polypropylene 96-well microtiter plate (drug plate). HI control and LO control wells contain only DMSO. One microliter of test compound from the drug plate followed by 10 μL of LPS are transferred to the cell plate. The treated cells are induced to synthesize and secrete TNF-α at 37° C. for 3 h. Forty microliters of conditioned media are transferred to a 96-well polypropylene plate containing 110 μL of ECL buffer (50 mM Tris-HCl pH 8.0, 100 mM NaCl, 0.05% Tween 20, 0.05% NaN3 and 1% FBS) supplemented with 0.44 nM MAB610 monoclonal Ab (R&D Systems), 0.34 nM ruthenylated AF210NA polyclonal Ab (R&D Systems) and 44 μg/mL sheep anti-mouse M280 Dynabeads (Dynal). After a 2 h incubation at RT with shaking, the reaction is read on the ECL M8 Instrument (IGEN Inc.). A low voltage is applied to the ruthenylated TNF-α immune complexes, which in the presence of TPA (the active component in Origlo), results in a cyclical redox reaction generating light at […]. The amount of secreted TNF-α in the presence of compound compared with that in the presence of DMSO vehicle alone (HI control) is calculated using the formula: % control (POC)=(cpd−average LO)/(average HI−average LO)*100. Data (consisting of POC and inhibitor concentration in μM) is fitted to a 4-parameter equation (y=A+((B−A)/(I+((x/C)ˆD))), where A is the minimum y (POC) value, B is the maximum y (POC), C is the x (cpd concentration) at the point of inflection and D is the slope factor) using a Levenburg-Marquardt non-linear regression algorithm.

Row | Structure (SMILES) | IC50 [µM]
1 | CCOC(=O)c1cc2c(nc1-c1ccccc1)N(c1ccnc(NC(C)Cc3cccc(CO)c3)n1)CCC2 (stereo not drawn) [Example 79, Ethyl 8-(2-(1-(3-(hydroxymethyl)phenyl)propan-2-ylamino)pyrimidin-4-yl)-2-phenyl-5,6,7,8-tetrahydro-1,8-naphthyridine-3-carboxylate] | ≤ 20
2 | CC(Cc1cccc(CN)c1)Nc1nccc(N2CCCc3cc(CO)c(-c4ccccc4)nc32)n1 (stereo not drawn) [Example 80, (8-(2-(1-(3-(Aminomethyl)phenyl)propan-2-ylamino)pyrimidin-4-yl)-2-phenyl-5,6,7,8-tetrahydro-1,8-naphthyridin-3-yl)methanol] | ≤ 20
3 | Nc1cc2c(nc1-c1ccccc1)N(c1ccnc(NCCc3ccccc3)n1)CCC2 [Example 81, 8-(2-(Phenethylamino)pyrimidin-4-yl)-2-phenyl-5,6,7,8-tetrahydro-1,8-naphthyridin-3-amine] | ≤ 20
4 | CCOC(=O)N1CCC(Nc2nccc(N3CCCc4ccc(-c5ccccc5)nc43)n2)CC1 [Example 87, Ethyl-4-(4-(7-phenyl-3,4-dihydro-1,8-naphthyridin-1(2H)-yl)pyrimidin-2-ylamino)-piperidine-1-carboxylate] | ≤ 20
5 | NC1CCC(Nc2nccc(N3CCCc4ccc(-c5ccccc5)nc43)n2)CC1 [Example 88, (1R,4R)-N^1-(4-(7-Phenyl-3,4-dihydro-1,8-naphthyridin-1(2H)-ylpyrimidin-2-yl)-cyclohexane-1,4-diamine] | ≤ 20
6 | CC(C)NC1CCC(Nc2nccc(N3CCCc4ccc(-c5ccccc5)nc43)n2)CC1 [Example 89, (1R,4R)-N^1-Isopropyl-N^4-(4-(7-phenyl-3,4-dihydro-1,8-naphthyridin-1(2H)-yl)pyrimidin-2-yl)cyclohexane-1,4-diamine] | ≤ 20
7 | C[C@@H](Cc1cccc([C@@H](C)N)c1)Nc1nccc(N2CCCc3ccc(-c4ccccc4)nc32)n1 [Example 91, N-((S)-1-(3-((R)-1-Aminoethyl)phenyl)propan-2-yl)-4-(7-phenyl-3,4-dihydro-1,8-naphthyridin-1(2H)-yl) pyrimidin-2-amine] | ≤ 20
8 | C[C@@H](Cc1cccc([C@@H](C)NC(=O)OC(C)(C)C)c1)Nc1nccc(N2CCOc3cnc(-c4ccccc4)nc32)n1 [Example 99, tert-Butyl (R)-1-(3-((S)-2-(4-(2-phenyl-6,7-dihydropyrimido[5,4-b][1,4]oxazin-8-yl)pyrimidin-2-ylamino)propyl)phenyl)ethylcarbamate] | ≤ 20
9 | C[C@@H](Cc1cccc(C(C)(C)N)c1)Nc1nccc(N2CCOc3cnc(-c4ccccc4)nc32)n1 [Example 108, (S)-N-(1-(3-(2-Aminopropan-2-yl)phenyl)propan-2-yl)-4-(2-phenyl-6,7-dihydropyrimido[5,4-b][1,4]oxazin-8-yl)pyrimidin-2-amine] | ≤ 20
10 | C[C@H](N)c1cccc(C[C@H](C)Nc2nccc(N3CCCc4cnc(-c5ccccc5)cc43)n2)c1 [Example 109, N-((S)-1-(3-((S)-1-Aminoethyl)phenyl)propan-2-yl)-4-(7-phenyl-3,4-dihydro-1,6-naphthyridin-1(2H)-yl)pyrimidin-2-amine] | ≤ 20

The remaining lines, values ahead:

Row | IC50 [µM] | Structure (SMILES)
11 | ≤ 20 | N[C@H]1CC[C@H](Nc2nccc(N3CCCc4cc(CO)c(-c5ccccc5)nc43)n2)CC1 [Example 76, (8-(2-((1R,4R)-4-Aminocyclohexylamino)pyrimidin-4-yl)-2-phenyl-5,6,7,8-tetrahydro-1,8-naphthyridin-3-yl)methanol]
12 | ≤ 20 | CC(C)(O)c1cc2c(nc1-c1ccccc1)N(c1ccnc(N[C@H]3CC[C@H](N)CC3)n1)CCC2 [Example 78, 2-(8-(2-((1R,4R)-4-Aminocyclohexylamino)pyrimidin-4-yl)-2-phenyl-5,6,7,8-tetrahydro-1,8-naphthyridin-3-yl)propan-2-ol]
13 | ≤ 20 | OCc1cc(-c2ccccc2)nc2c1CCCN2c1ccnc(NCCc2ccccc2)n1 [Example 86, (8-(2-(Phenethylamino)pyrimidin-4-yl)-2-phenyl-5,6,7,8-tetrahydro-1,8-naphthyridin-4-yl)methanol]
14 | ≤ 20 | CC(=O)NC1CCC(Nc2nccc(N3CCCc4ccc(-c5ccccc5)nc43)n2)CC1 [Example 90, N-((1R,4R)-4-(4-(7-Phenyl-3,4-dihydro-1,8-naphthyridin-1(2H)-yl)pyrimidin-2-ylamino)cyclohexyl)acetamide]
15 | ≤ 20 | C[C@@H](Cc1cccc([C@@H](C)N)c1)Nc1nccc(N2CCOc3cnc(-c4ccccc4)nc32)n1 [Example 100, N-((S)-1-(3-((R)-1-Aminoethyl)phenyl)propan-2-yl)-4-(2-phenyl-6,7-dihydropyrimido[5,4-b][1,4]oxazin-8-yl)pyrimidin-2-amine]
16 | ≤ 20 | N[C@H]1CC[C@H](Nc2nccc(N3CCOc4cnc(-c5ccccc5)nc43)n2)CC1 [Example 102, (1R,4R)-N^1-(4-(2-Phenyl-6,7-dihydropyrimido[5,4-b][1,4]oxazin-8-yl)pyrimidin-2-yl)cyclohexane-1,4-diamine]
17 | ≤ 20 | c1ccc(-c2ncc3c(n2)N(c2ccnc(NC4CCNCC4)n2)CCO3)cc1 [Example 106, 4-(2-Phenyl-6,7-dihydropyrimido[5,4-b][1,4]oxazin-8-yl)-N-(piperidin-4-yl)-pyrimidin-2-amine]
18 | ≤ 20 | CC(=O)N1CCC(Nc2nccc(N3CCOc4cnc(-c5ccccc5)nc43)n2)CC1 [Example 107, 1-(4-(4-(2-Phenyl-6,7-dihydropyrimido[5,4-b][1,4]oxazin-8-yl)pyrimidin-2-yl-amino)piperidin-1-yl)ethanone]
